# Assays:
# Format in all cases: functional
# [1] = Growth inhibition of human MCF7 cells at 30 uM after 72 hrs by MTT assay; settings: MCF7, 72 h, read-out: GI
# [2] = Growth inhibition of human MDA-MB-361 cells at 30 uM after 72 hrs by MTT assay; settings: MDA-MB-361, 72 h, read-out: GI
# [3] = Growth inhibition of human MDA-MB-361 cells at 10 uM after 72 hrs by MTT assay; settings: MDA-MB-361, 72 h, read-out: GI
# [4] = Growth inhibition of human MDA-MB-231 cells at 30 uM after 72 hrs by MTT assay; settings: MDA-MB-231, 72 h, read-out: GI
# [5] = Growth inhibition of human T47D cells at 10 uM after 72 hrs by MTT assay; settings: read-out: GI
# [6] = Growth inhibition of human MCF7 cells at 10 uM after 72 hrs by MTT assay; settings: MCF7, 72 h, read-out: GI
# [7] = Growth inhibition of human T47D cells at 30 uM after 72 hrs by MTT assay; settings: read-out: GI
# [8] = Growth inhibition of human MDA-MB-231 cells at 10 uM after 72 hrs by MTT assay; settings: MDA-MB-231, 72 h, read-out: GI
SMILES,inhibition of growth at 30 µM [1] [%],inhibition of growth at 30 µM [2] [%],inhibition of growth at 10 µM [3] [%],inhibition of growth at 30 µM [4] [%],inhibition of growth at 10 µM [5] [%],inhibition of growth at 10 µM [6] [%],inhibition of growth at 30 µM [7] [%],inhibition of growth at 10 µM [8] [%]
CC(=O)O[C@H]1CC[C@@]2(C)C(=CC[C@@H]3[C@@H]2CC[C@]2(C)C(c4nn(C)cc4C=O)=CC[C@@H]32)C1,61.9,55.6,< 20,26.2,< 20,30.9,65.2,< 20
CC(=O)O[C@H]1CC[C@@]2(C)C(=CC[C@@H]3[C@@H]2CC[C@]2(C)C(c4nn(-c5ccccc5)cc4C=O)=CC[C@@H]32)C1,86.3,76.9,52.8,71.5,31.4,57.1,79.9,37.9
C[C@]12CC[C@H](O)CC1=CC[C@@H]1[C@@H]2CC[C@]2(C)C(c3nn(-c4ccc(Br)cc4)cc3C=O)=CC[C@@H]12,61,60.4,48.1,55.8,36.2,22.2,70.7,< 20
CC(=O)O[C@H]1CC[C@@]2(C)C(=CC[C@@H]3[C@@H]2CC[C@]2(C)C(c4nn(C(C)=O)cc4C#N)=CC[C@@H]32)C1,70,64.6,< 20,61.3,< 20,< 20,63.9,< 20
Cc1ccc(-n2cc(C=O)c(C3=CC[C@H]4[C@@H]5CC=C6C[C@@H](O)CC[C@]6(C)[C@H]5CC[C@]34C)n2)cc1,72.6,75.8,57.3,76.9,47.2,47.8,74.8,58.9
Cn1cc(C=O)c(C2=CC[C@H]3[C@@H]4CC=C5C[C@@H](O)CC[C@]5(C)[C@H]4CC[C@]23C)n1,48.6,70,62.1,93.4,62,42.2,70.4,86.8
C[C@]12CC[C@H](O)CC1=CC[C@@H]1[C@@H]2CC[C@]2(C)C(c3nn(-c4ccc(Cl)cc4)cc3C=O)=CC[C@@H]12,55.7,60.5,48.4,41.1,43.6,32.1,68.4,< 20
C[C@]12CC[C@H](O)CC1=CC[C@@H]1[C@@H]2CC[C@]2(C)C(c3nn(-c4ccc([N+](=O)[O-])cc4)cc3C=O)=CC[C@@H]12,75.1,80,63.9,77,72.5,64.8,79.6,51.8
CC(=O)O[C@H]1CC[C@@]2(C)C(=CC[C@@H]3[C@@H]2CC[C@]2(C)C(c4nn(C)cc4C#N)=CC[C@@H]32)C1,50.3,53.1,30.8,34.9,21.7,41.8,60.4,30.5
CC(=O)O[C@H]1CC[C@@]2(C)C(=CC[C@@H]3[C@@H]2CC[C@]2(C)C(c4nn(-c5ccc(Br)cc5)cc4C=O)=CC[C@@H]32)C1,60.6,55.1,33.8,51.9,51.4,41.2,63.6,21.7
COc1ccc(-n2cc(CO)c(C3=CC[C@H]4[C@@H]5CC=C6C[C@@H](O)CC[C@]6(C)[C@H]5CC[C@]34C)n2)cc1,75.5,86.7,64.7,92.9,62.2,51.8,79.6,69.3
CC(=O)O[C@H]1CC[C@@]2(C)C(=CC[C@@H]3[C@@H]2CC[C@]2(C)C(c4nn(-c5ccc(Cl)cc5)cc4C=O)=CC[C@@H]32)C1,65.2,63.7,32.1,56.2,44.8,43.6,62.8,< 20
Cn1cc(CO)c(C2=CC[C@H]3[C@@H]4CC=C5C[C@@H](O)CC[C@]5(C)[C@H]4CC[C@]23C)n1,33.8,47.1,32.5,43.6,37.4,< 20,56.4,< 20
CC(=O)O[C@H]1CC[C@@]2(C)C(=CC[C@@H]3[C@@H]2CC[C@]2(C)C(c4nn(-c5ccc(C#N)cc5)cc4C=O)=CC[C@@H]32)C1,85.3,80.4,58.9,84.5,60.4,62.2,83.6,43
CC(=O)O[C@H]1CC[C@@]2(C)C(=CC[C@@H]3[C@@H]2CC[C@]2(C)C(c4nn(-c5ccc([N+](=O)[O-])cc5)cc4C=O)=CC[C@@H]32)C1,51.9,56.2,< 20,22.7,< 20,< 20,62.8,< 20
COc1ccc(-n2cc(C=O)c(C3=CC[C@H]4[C@@H]5CC=C6C[C@@H](OC(C)=O)CC[C@]6(C)[C@H]5CC[C@]34C)n2)cc1,77.7,66.7,32.8,54.4,33.9,43.8,69.1,< 20
Cc1ccc(-n2cc(CO)c(C3=CC[C@H]4[C@@H]5CC=C6C[C@@H](O)CC[C@]6(C)[C@H]5CC[C@]34C)n2)cc1,83.3,89.4,73.5,96.6,68.7,64.8,90.7,72.4

# From ChEMBL document CHEMBL3856198, “Synthesis of novel 17-(4'-formyl)pyrazolylandrosta-5,16-dienes and their derivatives as potent 17α-hydroxylase/C17,20-lyase inhibitors or antiproliferative agents depending on the substitution pattern of the heteroring” (Eur J Med Chem, 2016)
